Source: patent US6583179B2, “Substituted aminoalkylamide derivatives as antagonists of follicle stimulating hormone” (Ortho-McNeil Pharmaceutical, Inc., priority 1999, dated 2003)

Assays:
Rat Granulosa Cell = test: Rat granulosa cell FSH-stimulated cAMP production; assay type: cell-based; details: inhibition of cAMP produced by EC70 dose of FSH (1.4 nM), maximum concentration 50 μM
Method: Insulin, diethylstilbesterol, androstenedione, forskolin and DMSO were purchased from Sigma (St. Louis, Mo.). Fungizone, penicillin/streptomycin, charcoal-treated heat inactivated fetal bovine serum (CT-HI-FBS) and Dulbecco's Modified Eagle Medium:Hams F12 medium containing 15 mM Hepes and L-glutamine (DMEM:F12), were purchased from GIBCO BRL (Grand Island, N.Y.).
Ovine FSH (NIADDK-oFSH-17; FSH potency=20 NIH-FSH-S1 U/mg; LH contamination=0.04 times NIH-LH-S1) was received from Ogden Bioservices Corporation, Rockville, Md. Human FSH (Fertinex), was purchased from Serono Pharmaceutical (Framingham, Mass.). Human chorionic gonadotropin (hCG) was purchased from Sigma (St Louis, Mo.).
Immature intact female rats (Wistar-derived strain; 21-23 days old) were implanted with a single pellet (Innovative Research of America, Sarasota, Fla.) containing 2.5 mg diethylstilbesterol (DES) for 3 days. On the third day, the animals were sacrificed, the ovaries were removed, and the granulosa cells were isolated essentially as described in Haynes-Johnson et al., Biol. Reprod., 61 (1), 147-153, (1999). Granulosa cells were plated at a density of 300,000 cells per ml with 0.2 ml added to each well of 96 well culture dishes (Corning, N.Y.). Cultures were incubated at 37° C. in a humidified incubator (95% air, 5% CO2) overnight (18 hours).
Androstenedione (100,000X) was prepared by dissolving the steroid in 100% ethanol, and was subsequently diluted to a final concentration of 10^−7M containing 0.1% ethanol in assay media. The assay media was serum-free, DES-free, insulin-free media, prepared by adding 5 mL pen-strep,1.5 mL fungizone and 5 μL androstenedione to 493.5 mL DMEM F-12 media.
(§1) Test compounds were solubilized in 30% dimethyl sulfoxide (DMSO) at a concentration of 10 mM before diluting to appropriate concentrations in assay medium. The final DMSO concentration in the treated cells and in the control cells was 0.75%.
Test plates containing the granulosa cells were preincubated for 18 hours at 37° C. with 95% air, 5% CO2, 100% humidity. The spent media was removed and 50 μl assay media (DMEM:F12) containing 2 mM IBMX (3-isobutyl-1-methyl-xanthine) was added to the cells. Compounds (25 μl) in the appropriate concentration were added followed 5 minutes later by an EC70 dose of FSH (25 μl; 50 ng/ml; 1.4 nM). After 30 minutes @ 22.5° C. (room temperature) the reaction was terminated by addition of 25 μL 0.5 N hydrochloric acid to each well. The amount of cAMP produced was measured by radioimmunoassay in a FlashPlate (DuPont, Boston, Mass.). To each flash plate 60 μL flash plate buffer was added followed by 40 μL acidified cell sample or cAMP standard, followed with the addition of 100 μl ^125l-cAMP trace. The FlashPlates were sealed, incubated overnight @ room temperature, and counted in a Packard TopCount (Packard Instrument Co., Meriden, Conn.). The cAMP radioimmunoassay results were calculated using DPM conversion and log-logit transformation of % binding (Excel program).

human FSH receptor = target: T1, human FSH receptor (Homo sapiens, UniProt P23945); test: hFSHR CHO cAMP assay (rhFSHR-cLUC cells, FSH-stimulated cAMP, radioimmunoassay); assay type: cell-based; details: inhibition of cAMP produced by EC70 dose of FSH (4.85 nM); maximum concentration 50 μM
T1 construct: expressed in transfected cells; host or cells: Chinese Hamster Ovary cells (K-1; ATCC), line rhFSHR-cLUC
T1 sequence (P23945 18-695): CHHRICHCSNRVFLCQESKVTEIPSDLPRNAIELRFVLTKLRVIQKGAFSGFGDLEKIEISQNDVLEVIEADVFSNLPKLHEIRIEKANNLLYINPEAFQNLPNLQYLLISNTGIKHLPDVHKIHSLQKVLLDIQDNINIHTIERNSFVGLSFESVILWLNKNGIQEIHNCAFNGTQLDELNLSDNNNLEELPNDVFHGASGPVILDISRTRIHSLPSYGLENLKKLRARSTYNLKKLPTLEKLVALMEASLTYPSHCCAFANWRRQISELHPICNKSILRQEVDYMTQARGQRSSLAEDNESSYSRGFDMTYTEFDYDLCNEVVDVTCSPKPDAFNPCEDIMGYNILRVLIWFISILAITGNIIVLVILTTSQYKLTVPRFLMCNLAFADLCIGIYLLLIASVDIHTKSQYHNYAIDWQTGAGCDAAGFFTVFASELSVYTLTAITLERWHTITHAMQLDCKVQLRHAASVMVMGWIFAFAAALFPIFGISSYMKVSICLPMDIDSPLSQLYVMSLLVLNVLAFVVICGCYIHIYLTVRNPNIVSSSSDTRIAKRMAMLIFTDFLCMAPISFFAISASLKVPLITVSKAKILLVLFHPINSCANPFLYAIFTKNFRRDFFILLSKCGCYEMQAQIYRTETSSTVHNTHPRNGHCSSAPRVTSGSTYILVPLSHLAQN
Description: Minimum Essential Medium-Alpha (MEM-alpha), fetal bovine serum (FBS), penicillin, streptomycin, geneticin, trypsin-EDTA, Hanks' Balanced Salt Solution (no Calcium chloride, Magnesium chloride, Magnesium sulfate, or phenol red; Ca-Mg free HBSS) were purchased from Gibco BRL (Gaithersburg, Md.). The cells used for the FSH bioassay (rhFSHR-cLUC) were Chinese Hamster Ovary cells (K-1; ATCC) stably transformed with human FSH receptor (pSVK-FSHr) and a cAMP luciferase reporter gene (responsive CGα-180LUC). Follicle Stimulating Hormone (Metrodin; Fertinex) was purchased from Serono, Ltd. (Norwell, Mass.).
The rhFSHR-cLUC cell cultures were maintained in MEM-Alpha supplemented with 10% heat-inactivated FBS (HIFBS), 100 U/ml penicillin, 100 μg/mL streptomycin, and included 0.1 g/L geneticin for stable cell selection.
Forty-eight hours after the cells were plated in sterile 96-well culture plates (Corning, Corning, N.Y.) the spent media was removed and 50 μl assay media (modified growth media with 2% HIFBS) containing 2 mM IBMX (3-isobutyl-1-methyl-xanthine) was added to the cells. Compounds (25 μl) in the appropriate concentration were added followed 5 minutes later by an EC70 dose of FSH (25 μl; 160 ng/ml; 4.85 nM). After 10 minutes @ 22.5° C. (room temperature) the reaction was terminated by addition of 25 μL 0.5 N hydrochloric acid to each well. The amount of cAMP produced was measured by radioimmunoassay in a FlashPlate (DuPont, Boston, Mass.). To each flash plate 60 μL flash plate buffer was added followed by 40 μL acidified cell sample or cAMP standard, followed with the addition of 100 μl ^125l-cAMP trace. The FlashPlates were sealed, incubated overnight @ room temperature, and counted in a Packard TopCount (Packard Instrument Co., Meriden, Conn.). The cAMP radioimmunoassay results were calculated using DPM conversion and log-logit transformation of % binding (Excel program).
as §1
For individual experiments, a set of samples were tested including a vehicle control (assay buffer), a reference compound (hFSH) at a range of concentrations designed to elicit a minimal to maximal response, and several concentrations of test compounds together with an EC70 concentration of standard (hFSH challenge). Each compound was performed in duplicates for the primary evaluation and quadruplicates for the dose-ranging experiments. The cAMP radioimmunoassay raw data (pmol) were calculated to provide average pmol cAMP produced/ml and the percent inhibition was calculated as shown below.
% Inh=[1−(Avg.pmoltest compound+standard)/(Avg.pmolstandard)]×100
EC50 values were calculated from an analysis of the concentration-inhibition data using a linear analysis of the data transformed to a log-logit format.

EC50 (Rat Granulosa Cell)	EC50 (human FSH receptor)	Structure (SMILES)
80 nM	270 nM	Cc1ccccc1-c1ccc(S(=O)(=O)N(CC(=O)NCC2CCCC(CN)C2)C[C@H](C)c2ccccc2)cc1 (stereo partly shown) [Compound 384]
2060 nM	3090 nM	COc1ccccc1CCN(CC(=O)NCC1CCC(CN)CC1)S(=O)(=O)c1ccc(-c2cccc(C(F)(F)F)c2)cc1 (stereo not shown) [Compound 29]
40 nM	60 nM	C[C@H](CN(CC(=O)NCc1ccc(CN)cc1)S(=O)(=O)c1ccc(-c2ccccc2Cl)cc1)c1ccccc1 [Compound 208]
1560 nM	740 nM	COc1ccccc1CCN(CC(=O)NCc1ccc(CN)cc1)S(=O)(=O)c1ccc(-c2cccc(F)c2)cc1 [Compound 14]
60 nM	80 nM	C[C@@H](CN(CC(=O)NCc1ccc(CN)cc1)S(=O)(=O)c1ccc(-c2cccc(F)c2)cc1)c1ccccc1 [Compound 203]
1450 nM	4950 nM	COc1ccccc1CN(CC(=O)NCC1CCC(CN)CC1)S(=O)(=O)c1ccc(-c2cnc(SC)nc2)s1 (stereo not shown) [Compound 73]
8910 nM	34500 nM	COc1ccccc1CCN(CC(=O)NC1CCC(N)CC1)S(=O)(=O)c1ccc(-c2ccccc2C)cc1 (stereo not shown) [Compound 94]
160 nM	310 nM	COc1ccccc1CCN(CC(=O)NCC1CCC(CN)CC1)S(=O)(=O)c1ccc(-c2ccccc2C)cc1 (stereo not shown) [Compound 32]
600 nM	550 nM	COc1ccccc1CCN(CC(=O)NCc1ccc(CN)cc1)S(=O)(=O)c1ccc(-c2ccccc2C)s1 [Compound 272]
510 nM	1130 nM	COc1cccc(-c2ccc(S(=O)(=O)N(CCc3ccccc3OC)CC(=O)NCc3ccc(CN)cc3)cc2)c1 [Compound 16]
1970 nM	910 nM	COc1ccccc1CCN(CC(=O)NCC1CCC(CN)CC1)S(=O)(=O)c1ccc(-c2ccccc2Cl)cc1 (stereo not shown) [Compound 31]
8970 nM	9780 nM	COc1ccccc1CCN(CC(=O)NCc1ccc(CN)cc1)S(=O)(=O)c1ccc(Cl)s1 [Compound 114]
1070 nM	2330 nM	COc1cccc(CN(CC(=O)NCC2CCC(CN)CC2)S(=O)(=O)c2ccc(-c3cccc(OC)c3)cc2)c1 (stereo not shown) [Compound 24]
180 nM	420 nM	COc1ccccc1CCN(CC(=O)NCC1CCC(CN)CC1)S(=O)(=O)c1ccc(-c2ccccc2OC)cc1 (stereo not shown) [Compound 33]
